{"source": "patent US20230181614A1", "about": "“ADMINISTRATION OF CITICOLINE TO IMPROVE COGNITIVE PERFORMANCE, ATTENTIONAL PERFORMANCE, AND MOTOR FUNCTION” (KYOWA HAKKO BIO CO., LTD., priority 2014, published 2023)", "tested_on": "Healthy subjects, ages 13-18", "assay": "Exercise and Life Style Questionnaire", "assay_type": "in vivo, human", "parameters": "scale not given here", "conditions": "for Alcohol Q10 V1 Mean / Alcohol Q11 V1 Mean / Alcohol Q12 V1 Mean / Alcohol Total V1 Mean / Appetite Q5 V1 Mean / Appetite Q6 V1 Mean / Appetite Total V1 Mean / Exercise Q1 V1 Mean / Exercise Q2 V1 Mean / Exercise Q3 V1 Mean / Exercise Q4 V1 Mean / Exercise Total V1 Mean / Smoke Q7 V1 Mean / Smoke Q8 V1 Mean / Smoke Q9 V1 Mean / Smoke Total V1 Mean: Visit 1; for Alcohol Q10 V3 Mean / Alcohol Q11 V3 Mean / Alcohol Q12 V3 Mean / Alcohol Total V3 Mean / Appetite Q5 V3 Mean / Appetite Q6 V3 Mean / Appetite Total V3 Mean / Exercise Q1 V3 Mean / Exercise Q2 V3 Mean / Exercise Q3 V3 Mean / Exercise Q4 V3 Mean / Exercise Total V3 Mean / Smoke Q7 V3 Mean / Smoke Q8 V3 Mean / Smoke Q9 V3 Mean / Smoke Total V3 Mean: Visit 3", "from_the_text": "Study participants were screened by telephone prior to study enrollment. Healthy subjects, ages 13-18, with no significant medical conditions and no history of co-morbid psychiatric disorder, current Axis I or II diagnosis, or previous participation in a pharmacotherapeutic trial, were selected. Use of any psychotropic medication or any previous head injury resulting in loss of consciousness for 5 or more minutes were used as exclusion criteria. While no participant met criteria for a neuropsychiatric disorder at enrollment, clinical assessments were still completed throughout the study to evaluate changes in mood state. In addition, self-reports of sleep habits, lifestyle, and exercise routines were also administered at baseline as well as at each study visit to assess changes in health habits during study participation. Following the completion of Visit 1 assessment, participants were given their 28-day supply of citicoline (250 mg or 500 mg) or placebo, which was randomly assigned. They were instructed to take one capsule a day every day for the next 28 days. Visit 2 occurred fourteen days after Visit 1. At Visit 2, the remaining study pills were counted and participant dosage calendars were checked to ensure compliance with the protocol. Additional neuropsychological measures and clinical assessments were administered during this visit. Participants returned for Visit 3 fourteen days later, on the 28th day of their study participation. The pill bottle and the dosage calendar were collected from each participant. Urine and blood were again obtained. Participants also participated in similar clinical and neuropsychological testing and clinical measures that were given during visit 1. The General Questionnaire and Exercise and Life Style Questionnaire are self-report questionnaires designed to assess a variety of symptoms, behaviors, and self-perceptions, including mood, complexion, exercise, food, and alcohol habits of each of the participants. The General Questionnaire was administered during each of the three study visits; the Exercise and Life Style Questionnaire was administered during each of the three study visits. The Exercise/Lifestyle Questionnaire included four summary categories (Exercise, Appetite, Smoke, and Alcohol), each of which consisted of multiple individual items. Within and between group analyses are reported below for each of the summary categories.", "note": "Where “and” joins values, the source holds several entries; their conditions need not be identical. Equal values may be shown once.", "data": [{"smiles": "C[N+](C)(C)CCOP(=O)(O)OP(=O)([O-])OC[C@H]1O[C@@H](n2ccc(N)nc2=O)[C@H](O)[C@@H]1O", "note": "[citicoline, Cytidine 5′-diphosphocholine]", "values": [{"measurement": "Alcohol Total V3-V1 Mean", "setting": "250 mg/day", "value": 0.00}, {"measurement": "Appetite Total V3-V1 Mean", "setting": "250 mg/day", "value": -0.59}, {"measurement": "Exercise Total V3-V1 Mean", "setting": "250 mg/day", "value": -0.78}, {"measurement": "Smoke Total V3-V1 Mean", "setting": "250 mg/day", "value": -0.07}, {"measurement": "Alcohol Q10 V1 Mean", "setting": "250 mg/day", "value": 0.07}, {"measurement": "Alcohol Q11 V1 Mean", "setting": "250 mg/day", "value": 1.00}, {"measurement": "Alcohol Q12 V1 Mean", "setting": "250 mg/day", "value": 1.00}, {"measurement": "Alcohol Total V1 Mean", "setting": "250 mg/day", "value": 2.07}, {"measurement": "Appetite Q5 V1 Mean", "setting": "250 mg/day", "value": 4.11}, {"measurement": "Appetite Q6 V1 Mean", "setting": "250 mg/day", "value": 4.44}, {"measurement": "Appetite Total V1 Mean", "setting": "250 mg/day", "value": 8.56}, {"measurement": "Exercise Q1 V1 Mean", "setting": "250 mg/day", "value": 1.15}, {"measurement": "Exercise Q2 V1 Mean", "setting": "250 mg/day", "value": 6.35}, {"measurement": "Exercise Q3 V1 Mean", "setting": "250 mg/day", "value": 3.56}, {"measurement": "Exercise Q4 V1 Mean", "setting": "250 mg/day", "value": 3.81}, {"measurement": "Exercise Total V1 Mean", "setting": "250 mg/day", "value": 14.87}, {"measurement": "Smoke Q7 V1 Mean", "setting": "250 mg/day", "value": 0.00}, {"measurement": "Smoke Q8 V1 Mean", "setting": "250 mg/day", "value": 1.00}, {"measurement": "Smoke Q9 V1 Mean", "setting": "250 mg/day", "value": 1.07}, {"measurement": "Smoke Total V1 Mean", "setting": "250 mg/day", "value": 2.08}, {"measurement": "Alcohol Q10 V3 Mean", "setting": "250 mg/day", "value": 0.07}, {"measurement": "Alcohol Q11 V3 Mean", "setting": "250 mg/day", "value": 1.00}, {"measurement": "Alcohol Q12 V3 Mean", "setting": "250 mg/day", "value": 1.00}, {"measurement": "Alcohol Total V3 Mean", "setting": "250 mg/day", "value": 2.07}, {"measurement": "Appetite Q5 V3 Mean", "setting": "250 mg/day", "value": 4.15}, {"measurement": "Appetite Q6 V3 Mean", "setting": "250 mg/day", "value": 3.81}, {"measurement": "Appetite Total V3 Mean", "setting": "250 mg/day", "value": 7.96}, {"measurement": "Exercise Q1 V3 Mean", "setting": "250 mg/day", "value": 1.07}, {"measurement": "Exercise Q2 V3 Mean", "setting": "250 mg/day", "value": 6.80}, {"measurement": "Exercise Q3 V3 Mean", "setting": "250 mg/day", "value": 3.11}, {"measurement": "Exercise Q4 V3 Mean", "setting": "250 mg/day", "value": 3.11}, {"measurement": "Exercise Total V3 Mean", "setting": "250 mg/day", "value": 14.09}, {"measurement": "Smoke Q7 V3 Mean", "setting": "250 mg/day", "value": 0.00}, {"measurement": "Smoke Q8 V3 Mean", "setting": "250 mg/day", "value": 1.00}, {"measurement": "Smoke Q9 V3 Mean", "setting": "250 mg/day", "value": 1.00}, {"measurement": "Smoke Total V3 Mean", "setting": "250 mg/day", "value": 2.00}, {"measurement": "Alcohol Total V3-V1 Mean", "setting": "500 mg/day", "value": 0.00}, {"measurement": "Appetite Total V3-V1 Mean", "setting": "500 mg/day", "value": -0.83}, {"measurement": "Exercise Total V3-V1 Mean", "setting": "500 mg/day", "value": -2.78}, {"measurement": "Smoke Total V3-V1 Mean", "setting": "500 mg/day", "value": 0.00}, {"measurement": "Alcohol Q10 V1 Mean", "setting": "500 mg/day", "value": 0.00}, {"measurement": "Alcohol Q11 V1 Mean", "setting": "500 mg/day", "value": 1.00}, {"measurement": "Alcohol Q12 V1 Mean", "setting": "500 mg/day", "value": 1.00}, {"measurement": "Alcohol Total V1 Mean", "setting": "500 mg/day", "value": 2.00}, {"measurement": "Appetite Q5 V1 Mean", "setting": "500 mg/day", "value": 3.96}, {"measurement": "Appetite Q6 V1 Mean", "setting": "500 mg/day", "value": 3.25}, {"measurement": "Appetite Total V1 Mean", "setting": "500 mg/day", "value": 7.21}, {"measurement": "Exercise Q1 V1 Mean", "setting": "500 mg/day", "value": 1.17}, {"measurement": "Exercise Q2 V1 Mean", "setting": "500 mg/day", "value": 8.50}, {"measurement": "Exercise Q3 V1 Mean", "setting": "500 mg/day", "value": 3.71}, {"measurement": "Exercise Q4 V1 Mean", "setting": "500 mg/day", "value": 3.75}, {"measurement": "Exercise Total V1 Mean", "setting": "500 mg/day", "value": 17.24}, {"measurement": "Smoke Q7 V1 Mean", "setting": "500 mg/day", "value": 0.00}, {"measurement": "Smoke Q8 V1 Mean", "setting": "500 mg/day", "value": 1.00}, {"measurement": "Smoke Q9 V1 Mean", "setting": "500 mg/day", "value": 1.00}, {"measurement": "Smoke Total V1 Mean", "setting": "500 mg/day", "value": 2.00}, {"measurement": "Alcohol Q10 V3 Mean", "setting": "500 mg/day", "value": 0.00}, {"measurement": "Alcohol Q11 V3 Mean", "setting": "500 mg/day", "value": 1.00}, {"measurement": "Alcohol Q12 V3 Mean", "setting": "500 mg/day", "value": 1.00}, {"measurement": "Alcohol Total V3 Mean", "setting": "500 mg/day", "value": 2.00}, {"measurement": "Appetite Q5 V3 Mean", "setting": "500 mg/day", "value": 3.50}, {"measurement": "Appetite Q6 V3 Mean", "setting": "500 mg/day", "value": 2.88}, {"measurement": "Appetite Total V3 Mean", "setting": "500 mg/day", "value": 6.38}, {"measurement": "Exercise Q1 V3 Mean", "setting": "500 mg/day", "value": 1.13}, {"measurement": "Exercise Q2 V3 Mean", "setting": "500 mg/day", "value": 7.54}, {"measurement": "Exercise Q3 V3 Mean", "setting": "500 mg/day", "value": 2.96}, {"measurement": "Exercise Q4 V3 Mean", "setting": "500 mg/day", "value": 2.75}, {"measurement": "Exercise Total V3 Mean", "setting": "500 mg/day", "value": "14.46 and 14.48"}, {"measurement": "Smoke Q7 V3 Mean", "setting": "500 mg/day", "value": 0.00}, {"measurement": "Smoke Q8 V3 Mean", "setting": "500 mg/day", "value": 1.00}, {"measurement": "Smoke Q9 V3 Mean", "setting": "500 mg/day", "value": 1.00}, {"measurement": "Smoke Total V3 Mean", "setting": "500 mg/day", "value": 2.00}]}]}
